Data on 18 compounds can be found in patent publication US11427596B2, “Metal-free solvent-free synthesis of fused-pyrido heterocycles and biomedical applications” (Indian Institute of Technology Indore, priority 2019, dated 2022).

Data set [1] has as its system Mycobacterium smegmatis. Briefly: In vitro Mycobacterium strains killing assay, M. smegmatis. It is filed as cell-based.
Data set [2] deals with HeLa cells. Briefly: Live-cell confocal imaging of cell uptake. The class given is cell-based, human. Particulars: 3 h incubation, confocal microscopy. The method, then:
FIG. b 17 illustrates confocal microscopic studies (λex=405 nm; collection range=420-470 nm) for uptake of 18ac in HeLa cells, according to the embodiments as disclosed herein. • a) Confocal fluorescent image of HeLa cells after 3 h incubation with 10 μM concentration of 18ac (20× magnification, 2× zoom); • b) DIC image of HeLa cells • c) Overlay of (a) and (b) • d) Confocal image of HeLa cells after 3 h incubation with 100 nM concentration of 18ac (20× magnification, 2× zoom) • e) DIC image of HeLa cells • f) Overlay of (d) and (e).
To further evaluate cell uptake of the novel carbolines, live-cell imaging experiment was performed. HeLa cells were plated in a 4-well confocal dish (cell count=10^4 cells per well) and incubated for 48 h at 37° C. under 5% CO2. After 3 h of incubation with 18ac (10 nM, 100 nM, 1 μM, 10 μM, and 100 μM), cellular uptake and distribution were monitored by using confocal microscopy (λex=405 nm; collection range=420-470 nm).

For data set [3], the system named is HeLa. Briefly: Crystal violet cytotoxicity assay, HeLa. Particulars: Homo sapiens, 48 h incubation, triplicate. The class given is cell-based. The method, then:
(§1) FIG. 16 illustrates dose vs response curves of carbolines 18ac, 18bc, 18da and 18fa in HeLa, MCF-7, HEK293, A431 and A549 cell lines for 48 h incubation. IC50 values were determined by standard crystal violet assay in triplicate, according to the embodiments as disclosed herein. In vitro studies: The cytotoxicity of novel carboline derivatives 18ac, 18bc, 18da and 18fa were tested through standard crystal violet assay on human malignant cell lines such as HeLa, MCF-7, HEK293, A431 and A549. Cells were plated in a 96 well plate (1800 cells per well) and incubated for 48 h at 37° C. under 5% CO2. At 50% confluency, cells were incubated with a series of concentrations (0.1 μM, 0.25 μM, 0.5 μM, 1 μM, 2.5 μM, 5 μM, 10 μM, 25 μM, 50 μM and 100 μM) of the carbolines 18ac, 18bc, 18da and 18fa, respectively, for 48 h.
(§2) Procedure for cytotoxicity assay of carbolines in cancer cell lines: For this purpose, carbolines 18ac, 18bc, 18da and 18fa were subjected to a standard cell viability study (Crystal Violet assay) for examining anticancer activity against various human cancer cell lines such as HeLa, MCF-7, HEK293, A431 and A549. Crystal Violet is a triarylmethane dye which stains adhered cells by binding to the […]. The amount of Crystal Violet stain in the assay is directly proportional to the live cell biomass adhered on the plate after repeated washing. The above human cancer cell lines were plated in a 96-well tissue culture plate (1800 cells/well,) and incubated for 48 h in RPMI 1640 medium (volume≥100 μL/well), supplemented with 10% heat inactivated fetal bovine serum (HIFBS) and 1% Penicillin-Streptomycin antibiotic at 37° C., 5% CO2. Once the monolayer achieved 50% confluency/well, spent medium was aspirated and replaced with fresh medium≥100 μL/well, supplemented with increasing concentrations of carbolines 18ac, 18bc, 18da and 18fa (0.1 μM, 0.25 μM, 0.5 μM, 1 μM, 2.5 μM, 5 μM, 10 μM, 25 μM, 50 μM and 100 μM), respectively, and incubated for 48 h, at 37° C., 5% CO2. For positive control, 40% DMSO in culture medium was added to three wells and incubated under identical conditions. […] Finally, optical density of each well was measured at 570 nm (OD570) using Synergy H1 multimode plate reader (BioTek Instruments, Inc., Winooski, Vt., USA). The average background OD570 of empty wells was measured and subtracted from OD570/well on the plate. The percentage of treated, viable cells (attached) was determined and a dose vs response curve was plotted as semi-log[conc] vs percentage of normalized cell viability using GraphPad Prism v. […] The half maximal inhibitory concentration (IC50) was calculated and shown in Table 3 for carbolines 18ac, 18bc, 18da and 18fa against various human cancer cell lines (FIG. 16).

Data set [4] relates to A431. Briefly: Crystal violet cytotoxicity assay, A431. The class given is cell-based. As to conditions: Homo sapiens, A-431, 48 h incubation, triplicate. The method, then:
as §1, §2

Data set [5] relates to MCF-7. Briefly: Crystal violet cytotoxicity assay, MCF-7. Particulars: Homo sapiens, MCF7, 48 h incubation, triplicate. It is filed as cell-based. The method, then: as §1, §2
The test system of data set [6] is A549. Briefly: Crystal violet cytotoxicity assay, A549. As to conditions: Homo sapiens, 48 h incubation, triplicate. The class given is cell-based. The method, then:
as §1, §2

Data set [7] concerns HEK293. Briefly: Crystal violet cytotoxicity assay, HEK293. Particulars: Homo sapiens, 48 h incubation, triplicate. It is filed as cell-based. As to the method:
as §1, §2

Data set [8] can be described thus: Stability in polar solvent (HRMS footnote). The class given is physicochemical. Particulars: HRMS recording.

Molecules are shown by their SMILES. Values joined by “and” are separate entries in the source; they are usually repeats but may differ in a detail not shown here. Equal entries are not always repeated.

By melting point is commonly meant the temperature, or range, at which the solid turns liquid. In turn, `CCOC(=O)c1cc2oc3ccccc3c2c(-c2cc3ccccc3o2)n1` showed a melting point of 141 to 143 °C.
On to `Cc1ccc(-c2nc(COCc3cn(CCN4C(=O)C(=O)c5ccccc54)nn3)cc3oc(C)cc23)o1` [compound 26, 1-(2-(4-(((2-Methyl-4-(5-methylfuran-2-yl)furo[3,2-c]pyridin-6-yl)methoxy)methyl)-1H-1,2,3-triazol-1-yl)ethyl)indoline-2,3-dione], for which the “concentration range in which active (antituberculosis activity)” value in data set [1] was 70 to 100 µM and 50 to 100 µM.
By IC50 is commonly meant the concentration that gives 50% inhibition. The compound `Cn1c(-c2nc(C(=O)OC(C)(C)C)cc3c2c2ccccc2n3C)cc2ccccc21` [18ac, Tert-butyl 5-methyl-1-(1-methyl-1H-indol-2-yl)-5H-pyrido[4,3-b]indole-3-carboxylate] gave a melting point of 200 to 202 °C. In addition, the cellular uptake entry in data set [2] (100 nM concentration) is reported as “nominal uptake”. Also, in [2] (10 μM concentration), the cellular uptake entry is given as “Decent cytosolic uptake”. The IC50 in data set [3] was 4.89 µM. The IC50 in data set [4] is 4.89 µM. Besides, the IC50 in data set [5] is 5.59 µM. In addition, in data set [6], the IC50 was 4.62 µM. In addition, in data set [7], the IC50 came out at 2.29 µM.
`COC(=O)c1cc2c(c(-c3cc4cc(OC)ccc4n3C)n1)c1cc(OC)ccc1n2C` showed a melting point of 160 to 162 °C.
Turning to `COC(=O)C1=Cc2c(c3ccccc3n2S(=O)(=O)c2ccc(C)cc2)C(c2cc3ccccc3n2S(=O)(=O)c2ccc(C)cc2)N1` (stereo not shown) [18fa, Methyl 5-tosyl-1-(1-tosyl-1H-indol-2-yl)-2,5-dihydro-1H-pyrido[4,3-b]indole-3-carboxylate], the melting point was in the range of 205 to 207 °C. The IC50 in data set [3] was 1.07 µM. Further, in [4], the IC50 was 3.58 µM. In addition, in [5], the IC50 is 3.71 µM. In addition, the IC50 in [6] is 4.98 µM. Also, the IC50 in [7] was 4.98 µM.
In turn, `COC(=O)c1cc2occc2c(-c2ccco2)n1` registered a melting point of 95 to 97 °C.
With `NC(=O)c1cc2c(ccn2Cc2ccccc2)c(-c2cccn2Cc2ccccc2)n1` [compound 11, 1-Benzyl-4-(1-benzyl-1H-pyrrol-2-yl)-1H-pyrrolo[3,2-c]pyridine-6-carboxamide], in [8], the “stability in polar solvent” value is “unstable in polar solvent”.
Regarding `COC(=O)c1cc2c(ccn2S(=O)(=O)c2ccc(C)cc2)c(-c2cccn2S(=O)(=O)c2ccc(C)cc2)n1`, the melting point was 120 to 122 °C.
The same measure, in the same setting: in the case of `CC(C)(C)OC(=O)c1cc2occc2c(-c2ccco2)n1` it was 78 to 80 °C.
On the same count and under the same terms, in the case of `CCOC(=O)c1cc2c(c(-c3cc4ccccc4n3C)n1)c1ccccc1n2C` it was 175 to 177 °C.
In turn, `CC(C)(C)OC(=O)c1cc2c(c(-c3cc4ccccc4n3Cc3ccccc3)n1)c1ccccc1n2Cc1ccccc1` [18bc, Tert-butyl 5-benzyl-1-(1-benzyl-1H-indol-2-yl)-5H-pyrido[4,3-b]indole-3-carboxylate] showed a melting point of 148 to 150 °C. In addition, in [3], the IC50 was found to be 8.15 µM. In [4], the IC50 was determined as 9.18 µM. Also, the IC50 in data set [5] is 7.07 µM. Moreover, in data set [6], the IC50 was 5.47 µM. Also, the IC50 in [7] is 7.14 µM.
The compound `CC(C)(C)OC(=O)c1cc2oc3ccccc3c2c(-c2cc3ccccc3o2)n1` showed a melting point of 100 to 102 °C.
`COC(=O)c1cc2c(ccn2Cc2ccccc2)c(-c2cccn2Cc2ccccc2)n1` came in with a melting point of 134 to 136 °C.
Regarding `COC(=O)c1cc2c(ccn2S(=O)(=O)c2ccccc2)c(-c2cccn2S(=O)(=O)c2ccccc2)n1`, the melting point lay within 104 to 106 °C.
`COC(=O)c1cc2oc3ccccc3c2c(-c2cc3ccccc3o2)n1` showed a melting point of 163 to 165 °C.
In turn, `COC(=O)c1cc2c(c(-c3cc4ccccc4n3Cc3ccc(OC)cc3)n1)c1ccccc1n2Cc1ccc(OC)cc1` [18da, Methyl 5-(4-methoxybenzyl)-1-(1-(4-methoxybenzyl)-1H-indol-2-yl)-5H-pyrido[4,3-b]indole-3-carboxylate] yielded a melting point of 106 to 108 °C. For the same compound, the IC50 in data set [3] was found to be 1.3 µM. Moreover, the IC50 in [4] was determined as 4.47 µM. In [5], the IC50 was 2.99 µM. Besides, the IC50 in [6] came out at 5.17 µM. For the same compound, the IC50 in data set [7] came to 6.73 µM.
Consider `COC(=O)c1cc2c(c(-c3cc4ccccc4n3Cc3ccccc3)n1)c1ccccc1n2Cc1ccccc1`, for which the melting point lay in the range of 168 to 170 °C.
On the same count and under the same terms, the value for `COC(=O)c1cc2c(c(-c3cc4ccccc4n3C)n1)c1ccccc1n2C` was 210 to 212 °C.
